In US7282522B2, “Hydroxamic acid derivatives and the method for preparing thereof” (Amorepacific Corporation, priority 2003, dated 2007):

Columns and labels:
RARα = biological target: T1, RARα (Homo sapiens, UniProt P10276); assay: RARE-luciferase reporter assay in transfected CV-1 cells (affinity to retinoic acid receptor), RARα; format: cell-based; conditions: treated 24 hours at final concentration 10^−4M, control group 1000
T1 construct: expressed in transfected cells; host or cells: CV-1 cells (ATCC)
T1 sequence (P10276 1-462): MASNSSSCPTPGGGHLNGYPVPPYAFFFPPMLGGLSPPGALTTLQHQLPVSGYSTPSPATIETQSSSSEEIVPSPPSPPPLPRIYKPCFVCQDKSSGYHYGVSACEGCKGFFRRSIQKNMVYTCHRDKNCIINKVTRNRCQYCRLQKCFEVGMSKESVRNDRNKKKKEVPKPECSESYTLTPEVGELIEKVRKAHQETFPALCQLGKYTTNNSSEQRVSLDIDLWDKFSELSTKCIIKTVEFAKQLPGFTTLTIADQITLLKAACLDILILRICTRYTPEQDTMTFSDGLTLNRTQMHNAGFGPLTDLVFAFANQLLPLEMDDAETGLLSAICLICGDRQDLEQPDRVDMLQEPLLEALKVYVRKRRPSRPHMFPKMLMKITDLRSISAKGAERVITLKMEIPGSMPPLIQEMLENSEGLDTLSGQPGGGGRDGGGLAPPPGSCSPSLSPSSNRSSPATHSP
Description: This example illustrates affinities of hydroxamic acid derivatives obtained in Examples 1 to 55 to retinoic acid receptor, in comparison with retinol and retinoic acid.
(§1) Receptor-expression plasmid, pECE-RARα and pECE-RARγ were engineered by the prior method (Mol. Cell. Biol. 1996, 16, 1138-1149). RARE-tk-Luc, i.e. RARE reporter was obtained by inserting RARE fragment from b-RARE-tk-CAT into pGL3 luciferase basic vector. CV-1 cells were obtained from ATCC (American Type Culture Collection).
CV-1 cells were seeded into 96-well microtiter plate at 5,000 cells per well and cultured in DMEM (Dulbecco's Modified Eagle's Media) supplemented with 2.5% fetal bovine serum. 24 Hours later, the cells were transfected with 10 ng of pECE-RARα, long of pECE-RARγ, 100 ng of reporter plasmid and 100 ng of β-galactosidase-expression vector, using LipofectaminPlus (GIBCO BRL, grand island, N.Y.). 24 Hours post-transfection, the cells were treated for 24 hours with hydroxamic acid derivatives of Examples 1˜55 or retinol at a final concentration of 10^−4M or with retinoic acid at a final concentration of 10^−5M, which is 10 times lower concentration than those of the former.

procollagen type I = assay: Effect on collagen biosynthesis (procollagen type I ELISA) in human fibroblasts; format: cell-based; conditions: 10^−4M, 24 hours, serum-free medium, relative to control group = 100
Experimental: Human fibroblasts were seeded into 24-well plate at 1×10^5 cells per well and then cultured to 90% of growth.
For each supernatant, procollagen production was measured with procollagen type I ELISA kit.

RARγ = biological target: T2, RARγ (Homo sapiens, UniProt P13631); assay: RARE-luciferase reporter assay in transfected CV-1 cells (affinity to retinoic acid receptor), RARγ; format: cell-based; conditions: treated 24 hours at final concentration 10^−4M, control group 5000
T2 construct: expressed in transfected cells; host or cells: CV-1 cells (ATCC)
T2 sequence (P13631 1-454): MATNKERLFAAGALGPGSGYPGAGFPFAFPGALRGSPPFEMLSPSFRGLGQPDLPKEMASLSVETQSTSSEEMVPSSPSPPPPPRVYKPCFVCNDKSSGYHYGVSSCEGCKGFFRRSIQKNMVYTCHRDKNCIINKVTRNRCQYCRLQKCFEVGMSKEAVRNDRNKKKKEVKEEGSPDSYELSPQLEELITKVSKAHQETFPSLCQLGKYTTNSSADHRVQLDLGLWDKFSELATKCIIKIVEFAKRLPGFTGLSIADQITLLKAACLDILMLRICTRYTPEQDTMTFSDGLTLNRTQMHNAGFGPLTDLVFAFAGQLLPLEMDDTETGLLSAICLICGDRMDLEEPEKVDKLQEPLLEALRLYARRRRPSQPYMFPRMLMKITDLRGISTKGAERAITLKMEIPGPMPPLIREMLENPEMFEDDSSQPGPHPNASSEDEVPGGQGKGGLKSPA
Experimental: as §1
CV-1 cells were seeded into 96-well microtiter plate at 5,000 cells per well and cultured in DMEM (Dulbecco's Modified Eagle's Media) supplemented with 2.5% fetal bovine serum. 24 Hours later, the cells were transfected with 10 ng of pECE-RARα, long of pECE-RARγ, 100 ng of reporter plasmid and 100 ng of β-galactosidase-expression vector, using LipofectaminPlus (GIBCO BRL, grand island, N.Y.).

white guinea pigs = assay: Phototoxicity test (UVA irradiation); conditions: for Evaluation (phototoxicity): 1%(w/v) solution, UVA 15 J/cm^2; for Phototoxic index: 50 μl of 1%(w/v) solution, UVA 320~380 nm 15 J/cm^2, observed 24, 48 and 72 hours
Experimental: Test was performed for twenty-five (25) of white guinea pigs whose backs were depilated and fixed. On both sides of the back, six(6) sites of 2 cm×2 cm, three(3) per side were sectioned. Right sites were compared as controls with no irradiation (UV non-irradiation sites) and left sites were irradiated (UV irradiation sites).
30 Minutes later, right sites were shielded with aluminum foil and UVA(320˜380 nm) was irradiated at a distance of about 10 cm therefrom using Waldmann to the final energy of 15 J/cm^2. After 24, 48 and 72 hours elapsed, skin response of guinea pig was observed. […] Evaluation was estimated for each elapsed time, i.e. 24, 48 and 72 hours and maximum scores were selected, to calculate irritation index by the following equation 3. Then, phototoxic index was calculated by the following equation 4. Irritation index=(ΣMaximum of erythema+ΣMaximum of edema)/Number of animals [Equation 3] Phototoxic index=(Irritation index of UV irradiation site)−(Irritation index of UV non-irradiation site) Equation 4]

collagenase = assay: Inhibition of collagenase expression in human fibroblasts (ELISA kit); format: cell-based; conditions: 10^−4M, 24 hours, serum-free medium, relative to control group = 100
Experimental: Human fibroblasts were seeded into 96-well microtiter plate at 5,000 cells per well and then cultured to 90% of growth in DMEM (Dulbecco's Modified Eagle's Media) supplemented with 2.5% fetal bovine serum. Then, the fibroblastes were cultured in serum-free DMEM for 24 hours and treated for 24 hours with 10^−4M of hydroxamic acid derivatives of Examples 1˜55, retinol or retinoic acid in serum-free medium, and then the culture fluid was collected.
(§2) For each culture fluid, collagenase production was measured with collagenase kit (commercialized by AmershamPharmacia Biotech). Firstly, the culture fluid was added to 96-well plate spread with primary collagenase antibody and then antigen-antibody reaction was performed in an incubator for 3 hours. Later, chromophore-conjugated secondary antibody was added to the 96-well plate and then reacted for 15 minutes. Then, color former was added thereto, to induce development at room temperature for 15 minutes. 1M of sulfuric acid was added to stop the reaction. […] The color density depends on the progress of the reaction. The absorbance of the yellow 96-well plate was measured at 405 nm using absorptiometer. Collagenase expression was calculated by the following equation 1. Herein, the absorbance of the culture fluid collected from the medium with no material treated was used as a control. Collagenase expression (%)=(Absorbance of test group with said material treated/Absorbance of control group with no material treated)×100 [Equation 1]
Collagenase expression was evaluated as a relative value, in consideration that the value of control group with no material treated is 100.

elastase = assay: Inhibition of elastase expression in human fibroblasts (ELISA kit); format: cell-based; conditions: 10^−4M, 24 hours, serum-free medium, relative to control group = 100
Experimental: as §2, with “elastase” for “collagenase”, “Elastase” for “Collagenase”, “2.” for “1.”, “2]” for “1]”
Elastase expression was evaluated as a relative value, in consideration that the value of control group with no material treated is 100.

rabbits = assay: Primary skin irritation test on animals (Draize P.I.I.); conditions: depilated back; for P.I.I. (Primary Irritation Index): 0.5 ml of 1% solution in 1,3-butylene glycol:ethanol 7:3, observed 24 or 72 hours later; for Evaluation (skin irritation): 1% solution, according to Draize's P.I.I.
Experimental: Test was performed using fifty-six (56) of healthy male rabbits whose backs were depilated. […] 0.5ml of the test sample solution was applied to the right site of 2.5 cm×2.5 cm region on each of the depilated back. Left site with no sample treated was compared as a control. 24 hours or 72 hours later, skin abnormality such as erythema, crust and edema was observed.
Based on the score of skin response, skin irritation was evaluated according to Draize's P.I.I.(Primary Irritation Index) and compared with retinoic acid.

Compound	Luciferase activity RARα (RARα)	Collagen biosynthesis (%) (procollagen type I)	Luciferase activity RARγ (RARγ)	Evaluation (phototoxicity) (white guinea pigs)	Phototoxic index (white guinea pigs)	Collagenase expression (%) (collagenase)	Elastase expression (%) (elastase)	P.I.I. (Primary Irritation Index) (rabbits)	Evaluation (skin irritation) (rabbits)
CC(C)(C)c1ccc(C(=O)Nc2ccc(C(=O)NO)cc2)cc1 [Example 8, N-[4-(N-hydroxycarbamoyl)phenyl][4-tert-butylphenyl]carboxyamide]	10002	112	12000	No phototoxicity (lower value than 0.5, criterion value to be estimated as no phototoxicity)	0	90	69	0.330	No irritation
CN(O)C(=O)c1ccc(N(C)C(=O)C23CC4CC(CC(C4)C2)C3)cc1 [Example 22, adamantyl-N-[4-(N-hydroxy-N-methylcarbamoyl)phenyl]-N-methylcarboxyamide]	12100	120	12400	No phototoxicity (lower value than 0.5, criterion value to be estimated as no phototoxicity)	0	77	70	0.350	No irritation
Cc1ccc(N(C)C(=O)c2ccc(C(=O)NO)cc2)cc1 [Example 46, [4-(N-hydroxycarbamoyl)phenyl]-N-methyl-N-[4-methylphenyl]carboxyamide]	13200	121	11123	No phototoxicity (lower value than 0.5, criterion value to be estimated as no phototoxicity)	0	83	80	0.345	No irritation
Cc1ccc(C(=O)Nc2ccc(CC(=O)NO)cc2)cc1 [Example 24, N-[4-(N-hydroxycarbamoylmethyl)phenyl][4-methylphenyl]carboxyamide]	12100	121	11210	No phototoxicity (lower value than 0.5, criterion value to be estimated as no phototoxicity)	0	76	82	0.321	No irritation
Cc1ccc(NC(=O)c2ccc(C(=O)NO)cc2)cc1C [Example 42, [4-(N-hydroxycarbamoyl)phenyl]-N-[3,4-dimethylphenyl]carboxyamide]	14500	116	11200	No phototoxicity (lower value than 0.5, criterion value to be estimated as no phototoxicity)	0	78	76	0.987	No irritation
CN(O)C(=O)c1ccc(C(=O)N(C)C23CC4CC(CC(C4)C2)C3)cc1 [Example 55, N-adamantyl [4-(N-hydroxy-N-methylcarbamoyl)phenyl]-N-methyl carboxyamide]	13400	108	11000	No phototoxicity (lower value than 0.5, criterion value to be estimated as no phototoxicity)	0	85	70	0.245	No irritation
CCCCc1ccc(C(=O)N(C)c2ccc(C(=O)NO)cc2)cc1 [Example 18, N-[4-(N-hydroxycarbamoyl)phenyl]-N-methyl-[4-butylphenyl]carboxyamide]	12900	130	11400	No phototoxicity (lower value than 0.5, criterion value to be estimated as no phototoxicity)	0	78	79	0.321	No irritation
CC1=C(/C=C/C(C)=C/C=C/C(C)=C/C(=O)O)C(C)(C)CCC1 [Retinoic acid, retinoic acid, reference compound]		125				60	68	1.830	Light irritation
CN(O)C(=O)c1ccc(C(=O)NC23CC4CC(CC(C4)C2)C3)cc1 [Example 44, N-adamantyl [4-(N-hydroxy-N-methylcarbamoyl)phenyl]carboxyamide]	23100			No phototoxicity (lower value than 0.5, criterion value to be estimated as no phototoxicity)					
CC1=C(/C=C/C(C)=C/C=C/C(C)=C/CO)C(C)(C)CCC1 [Retinol, retinol, reference compound]	2500	120	6000			85	88		
